Measurements published in patent US20180099931A1 (AbbVie S.à.r.l., priority 2016, published 2018).
Where two headings read alike, the source gives them in different places.

Molecular target: T1, F508delCFTR (Homo sapiens, UniProt P13569, DEL508-508)
T1 construct: expressed in transfected cells; host or cells: CFBE41o- human lung-derived epithelial cells (CFBE4lo-F508delCFTR-HRP), doxycycline-inducible
Assay: Cell Surface Expression-Horse Radish Peroxidase (CSE-HRP) Assay;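 on Maximum % activity (with co-corrector): co-corrector and positive control are both the same reference corrector at 2 µM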;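 on Maximum % activity (without co-corrector): percent of the 2 µM on-plate positive control corrector response above DMSO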
Type: cell-based
Details: for Maximum % activity (with co-corrector) / Emax: maximum at any tested concentration, normalized to on-plate positive control; for Emax: read-out: Maximum % activity (without co-corrector)
Method: Cell Surface Expression-Horse Radish Peroxidase (CSE-HRP) Assay;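 on Maximum % activity (with co-corrector): co-corrector and positive control are both the same reference corrector at 2 µM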;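 on Maximum % activity (without co-corrector): percent of the 2 µM on-plate positive control corrector response above DMSO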
The development was achieved by expressing the F508delCFTR mutation along with a horseradish peroxidase (HRP) in the fourth exofacial loop, and then measuring the HRP activity using luminescence readout from these cells, CFBE4lo-F508delCFTR-HRP, that were incubated overnight with the test corrector compounds, either without or with the co-corrector. […] The test compounds were then added either without or with a co-corrector at the required concentrations and further incubated for 18-24 hours at 33° C. The highest concentration tested was 20 μM with an 8-point concentration response curve using a 3-fold dilution in both the test compound without or with the co-corrector. Three replicate plates were run to determine one EC50. All plates contained negative controls (dimethyl sulfoxide, DMSO) and positive control (2 μM of 3-[(2R,4R)-4-({[1-(2,2-difluoro-1,3-benzodioxol-5-yl)cyclopropyl]carbonyl}amino)-7-methoxy-3,4-dihydro-2H-chromen-2-yl]benzoic acid) as well as on-plate concentration response of the positive control. […] The raw counts from the experiment were analyzed using Accelrys® Assay Explorer v3.3.
1−[3*SDPositive Control+3*SDNegative Control/Absolute(MeanPositive Control−MeanNegative Control)]
wherein “SD” is standard deviation.
The % activity measured at each of the 8 test concentrations of the test compound added either without or with a co-corrector (2 μM of 3-[(2R,4R)-4-({[1-(2,2-difluoro-1,3-benzodioxol-5-yl)cyclopropyl]carbonyl}amino)-7-methoxy-3,4-dihydro-2H-chromen-2-yl]benzoic acid) was normalized to the on-plate positive control using the following formulae:
% activity(Test compound without co-corrector)=[(test compound without co-corrector response−DMSO response)/(positive control response−DMSO response)]*100
% activity(Test compound with co-corrector)=[(test compound with co-corrector response−DMSO response)/(positive control response−DMSO response)]*100
The maximum % activity achieved for the test compound either without or with a co-corrector at any tested concentration is presented in Table 4 along with the respective EC50's calculated using the following general sigmoidal curve with variable Hill slope equation (described as Model 42 in the Accelrys® Assay Explorer v3.3 software):
General sigmoidal curve with concentration, response, top, bottom, EC50 and Hill slope. This model describes a sigmoidal curve with an adjustable baseline, a. The equation can be used to fit curves where response is either increasing or decreasing with respect to the independent variable, “x”.
“x” is a concentration of drug under test. “y” is the response. “a” is the maximum response, and “d” is the minimum response “c” is the inflection point (EC50) for the curve. That is, “y” is halfway between the lower and upper asymptotes when x=c. “b” is the slope-factor or Hill coefficient. The sign of b is positive when the response increases with increasing dose and is negative when the response decreases with increasing dose (inhibition).

[1] = CSE-HRP, test compound without co-corrector, read-out: EC50 (without co-corrector)
[2] = CSE-HRP, with co-corrector (2 μM of 3-[(2R,4R)-4-({[1-(2,2-difluoro-1,3-benzodioxol-5-yl)cyclopropyl]carbonyl}amino)-7-methoxy-3,4-dihydro-2H-chromen-2-yl]benzoic acid), read-out: EC50 (with co-corrector)
[3] = CSE-HRP, with co-corrector (2 μM)
[4] = test compound without co-corrector
[5] = test compound without co-corrector, read-out: EC50 (without co-corrector)
[6] = with co-corrector (2 μM of 3-[(2R,4R)-4-({[1-(2,2-difluoro-1,3-benzodioxol-5-yl)cyclopropyl]carbonyl}amino)-7-methoxy-3,4-dihydro-2H-chromen-2-yl]benzoic acid)
[7] = with co-corrector (2 μM of 3-[(2R,4R)-4-({[1-(2,2-difluoro-1,3-benzodioxol-5-yl)cyclopropyl]carbonyl}amino)-7-methoxy-3,4-dihydro-2H-chromen-2-yl]benzoic acid), read-out: EC50 (with co-corrector)

T1 sequence (P13569 with tags, fused parts or gaps DEL508-508): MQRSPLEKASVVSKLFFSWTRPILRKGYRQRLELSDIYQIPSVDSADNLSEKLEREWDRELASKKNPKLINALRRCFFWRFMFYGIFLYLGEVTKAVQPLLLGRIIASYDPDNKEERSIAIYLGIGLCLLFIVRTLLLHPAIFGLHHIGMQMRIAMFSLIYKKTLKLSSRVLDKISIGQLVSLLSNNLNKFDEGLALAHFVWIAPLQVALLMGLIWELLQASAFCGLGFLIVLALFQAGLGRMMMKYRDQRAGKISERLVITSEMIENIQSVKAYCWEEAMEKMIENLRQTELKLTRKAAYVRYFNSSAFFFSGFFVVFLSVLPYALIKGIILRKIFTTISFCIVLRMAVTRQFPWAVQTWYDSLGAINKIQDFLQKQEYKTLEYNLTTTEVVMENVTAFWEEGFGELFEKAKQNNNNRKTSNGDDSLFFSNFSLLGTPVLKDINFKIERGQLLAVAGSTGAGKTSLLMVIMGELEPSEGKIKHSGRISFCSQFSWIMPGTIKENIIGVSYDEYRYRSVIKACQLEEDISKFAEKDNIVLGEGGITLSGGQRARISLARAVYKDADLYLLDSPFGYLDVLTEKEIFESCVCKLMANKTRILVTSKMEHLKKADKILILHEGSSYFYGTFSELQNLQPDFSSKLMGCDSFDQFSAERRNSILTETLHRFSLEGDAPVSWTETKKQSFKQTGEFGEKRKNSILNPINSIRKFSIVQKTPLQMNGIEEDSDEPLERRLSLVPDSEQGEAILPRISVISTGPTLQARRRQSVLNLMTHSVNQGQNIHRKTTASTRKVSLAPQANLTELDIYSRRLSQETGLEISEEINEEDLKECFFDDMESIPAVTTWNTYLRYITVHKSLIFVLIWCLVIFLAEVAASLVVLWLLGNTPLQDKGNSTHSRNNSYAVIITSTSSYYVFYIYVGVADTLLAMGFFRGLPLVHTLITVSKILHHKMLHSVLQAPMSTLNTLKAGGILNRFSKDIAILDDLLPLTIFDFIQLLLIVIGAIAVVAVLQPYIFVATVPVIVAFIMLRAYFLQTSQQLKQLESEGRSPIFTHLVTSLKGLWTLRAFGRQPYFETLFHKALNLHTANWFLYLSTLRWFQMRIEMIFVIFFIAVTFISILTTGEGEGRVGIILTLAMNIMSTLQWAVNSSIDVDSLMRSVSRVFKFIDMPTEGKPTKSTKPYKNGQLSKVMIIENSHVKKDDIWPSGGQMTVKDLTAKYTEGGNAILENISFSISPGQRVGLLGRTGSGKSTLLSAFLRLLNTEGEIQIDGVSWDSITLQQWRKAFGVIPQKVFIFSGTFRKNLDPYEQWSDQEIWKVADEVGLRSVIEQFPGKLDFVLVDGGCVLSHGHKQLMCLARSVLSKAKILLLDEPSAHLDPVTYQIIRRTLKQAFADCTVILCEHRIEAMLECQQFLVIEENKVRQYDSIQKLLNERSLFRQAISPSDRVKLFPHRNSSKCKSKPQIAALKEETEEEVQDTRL

SMILES | EC50 [1] | EC50 [2] | Maximum % activity (with co-corrector) [3] | Emax (CSE-HRP, without co-corrector) | Emax [4] | EC50 [5] | Maximum % activity (with co-corrector) [6] | EC50 [7] | Maximum % activity (with co-corrector) (with co-corrector (2 μM)) | Emax (without co-corrector)
COc1ncc([Si](C)(C)C)cc1CN[C@H]1[C@H](C(C)(C)C)[C@@H](C(=O)O)N(C(=O)[C@@H]2CCCC(F)(F)C2)[C@H]1c1ccccc1 [Example I-189] | – | – | – | – | – | < 1000 nM | – | < 1000 nM | – | –
COc1cc(C(F)(F)F)ccc1CN[C@H]1[C@H](C(C)(C)C)[C@@H](C(=O)O)N(C(=O)C2CCCCC2)[C@H]1c1ccccc1OC (stereo in doubt) [II-50] | < 1000 nM | < 1000 nM | +++ (≥350) | 100 to 200% | – | – | – | – | – | –
COc1cc(Cl)ccc1CN[C@H]1[C@H](C(C)(C)C)[C@@H](C(=O)O)N(C(=O)[C@H](OC)c2ccccc2)[C@H]1c1cccnc1N(C)C (racemic) [II-47] | 1000 to 10000 nM | 1000 to 10000 nM | +++ (≥350) | 100 to 200% | – | – | – | – | – | –
COc1cc(CN[C@H]2[C@H](C(C)(C)C)[C@@H](C(=O)O)N(C(=O)C3CCCCC3)[C@H]2c2ccccc2)c(F)cc1Cl [II-104] | 1000 to 10000 nM | 1000 to 10000 nM | ++ (≥150 and <350) | < 100% | – | – | – | – | – | –
CC(C)(C)[C@@H]1[C@@H](NCc2cc(C(F)(F)F)cnc2Cl)[C@@H](c2ccccc2)N(C(=O)C2CCCCC2)[C@H]1C(=O)O (racemic) [II-15] | < 1000 nM | < 1000 nM | +++ (≥350) | < 100% | – | – | – | – | – | –
COc1ccc(Cl)cc1CN[C@H]1[C@H](C(C)(C)C)[C@@H](C(=O)O)N(C(=O)C2CCCO2)[C@H]1c1ccccc1 (mixture of isomers) [II-61] | 1000 to 10000 nM | 1000 to 10000 nM | +++ (≥350) | 100 to 200% | – | – | – | – | – | –
CC(C)(C)[C@H]1[C@H](NCc2ccc(F)cc2OCC2CC2)[C@H](c2ccccc2)N(C(=O)C2CCCCC2)[C@@H]1C(=O)O [Example I-50] | – | – | – | – | – | 1000 to 10000 nM | – | 1000 to 10000 nM | ++ (≥150 and <350) | < 100%
COc1ncc(C(F)(F)F)cc1CN[C@H]1[C@H](C(C)(C)C)[C@@H](C(=O)O)N(C(=O)OC(C)C)[C@H]1c1ccccc1C1CC1 [Example 91, (2S,3S,4S,5S)-3-tert-butyl-5-(2-cyclopropylphenyl)-4-({[2-methoxy-5-(trifluoromethyl)pyridin-3-yl]methyl}amino)-1-{[(propan-2-yl)oxy]carbonyl}pyrrolidine-2-carboxylic acid] | – | – | – | – | – | < 1000 nM | – | < 1000 nM | +++ (≥350) | > 200%
COc1cnc(C(C)(C)C)cc1CN[C@H]1[C@H](C(C)(C)C)[C@@H](C(=O)O)N(C(=O)C2CCCCC2)[C@H]1c1ccccc1 [Example 48, (2S,3S,4S,5S)-3-tert-butyl-4-{[(2-tert-butyl-5-methoxypyridin-4-yl)methyl]amino}-1-(cyclohexanecarbonyl)-5-phenylpyrrolidine-2-carboxylic acid] | – | – | – | – | – | 1000 to 10000 nM | – | 1000 to 10000 nM | +++ (≥350) | 100 to 200%
Cc1cc(C(F)(F)F)cc(N[C@@H]2[C@@H](C(C)(C)C)[C@H](C(=O)O)N(C(=O)Cc3ccccc3)[C@@H]2c2ccccc2)n1 (racemic) [II-55] | > 10000 nM | 1000 to 10000 nM | ++ (≥150 and <350) | < 100% | – | – | – | – | – | –
COc1ccc(C2(C)CCC2)cc1CN[C@H]1[C@H](C(C)(C)C)[C@@H](C(=O)O)N(C(=O)[C@@H]2CCCCO2)[C@H]1c1ccccc1C [Example 109, (2S,3S,4S,5S)-3-tert-butyl-4-({[2-methoxy-5-(1-methylcyclobutyl)phenyl]methyl}amino)-5-(2-methylphenyl)-1-[(2S)-oxane-2-carbonyl]pyrrolidine-2-carboxylic acid] | – | – | – | – | – | < 1000 nM | – | < 1000 nM | +++ (≥350) | > 200%

Next, values leading:

EC50 [1] | EC50 [2] | Maximum % activity (with co-corrector) [3] | Emax (CSE-HRP, without co-corrector) | Emax [4] | EC50 [5] | Maximum % activity (with co-corrector) [6] | EC50 [7] | Maximum % activity (with co-corrector) (with co-corrector (2 μM)) | Emax (without co-corrector) | SMILES
1000 to 10000 nM | 1000 to 10000 nM | +++ (≥350) | 100 to 200% | – | – | – | – | – | – | COc1ccc(C(F)(F)F)cc1CN[C@H]1[C@H](C(C)(C)C)[C@@H](C(=O)O)N(C(=O)C2CCCCC2)[C@H]1c1ccccc1F [II-260]
– | – | – | – | > 200% | 1000 to 10000 nM | +++ (≥350) | 1000 to 10000 nM | – | – | COc1ccc(C(F)(F)F)cc1CN[C@@H]1[C@@H](C(C)(C)C)[C@H](C(=O)O)N(C(=O)C2C3COCC32)[C@@H]1c1ccccc1N(C)C (mixture of isomers) [III-71]
1000 to 10000 nM | 1000 to 10000 nM | +++ (≥350) | < 100% | – | – | – | – | – | – | COc1ccc(-c2cnccc2C)cc1CN[C@H]1[C@H](C(C)(C)C)[C@@H](C(=O)O)N(C(=O)C2CCCCC2)[C@H]1c1ccccc1 [II-280]
– | – | – | – | > 200% | 1000 to 10000 nM | +++ (≥350) | 1000 to 10000 nM | – | – | COc1ccc(C(C)(C)C)cc1CN[C@H]1[C@H](C(C)(C)OC)[C@@H](C(=O)O)N(C(=O)OC(C)C)[C@H]1c1ccccc1 [II-419]
– | – | – | – | 100 to 200% | 1000 to 10000 nM | +++ (≥350) | 1000 to 10000 nM | – | – | COc1ncc(C(F)(F)F)cc1CN[C@@H]1[C@@H](C(C)(C)C)[C@H](C(=O)O)N(C(=O)C2CCCCC2)[C@@H]1c1ccccc1 (racemic) [III-81]
– | – | – | – | > 200% | < 1000 nM | +++ (≥350) | < 1000 nM | – | – | COc1ccc(C(F)(F)F)cc1CN[C@H]1[C@H](C(C)(C)C)[C@@H](C(=O)O)N(C(=O)[C@@H]2CCCO2)[C@H]1c1ccccc1C(C)C [II-595]
– | – | – | – | > 200% | 1000 to 10000 nM | +++ (≥350) | < 1000 nM | – | – | COc1ncc(C2CCC2)cc1CN[C@H]1[C@H](C(C)(C)C)[C@@H](C(=O)O)N(C(=O)C2CCCC(F)(F)C2)[C@H]1c1ccccc1 (stereo partly drawn) [II-492]
– | – | – | – | > 200% | 1000 to 10000 nM | +++ (≥350) | 1000 to 10000 nM | – | – | C=CCOC(=O)N1[C@H](C(=O)O)[C@@H](C(C)(C)C)[C@H](NCc2cc(C(C)(C)C)ccc2OC)[C@@H]1c1ccccc1 [II-391]
– | – | – | – | < 100% | > 10000 nM | + (<150) | 1000 to 10000 nM | – | – | COc1cccc([C@@H]2[C@H](NCc3ccccc3OC(F)F)[C@@H](C(C)(C)C)[C@H](C(=O)O)N2C(=O)N(C(C)C)C(C)C)n1 (racemic) [III-59]
< 1000 nM | < 1000 nM | +++ (≥350) | > 200% | – | – | – | – | – | – | COc1ccc(C(C)(C)C)cc1CN[C@H]1[C@H](C(C)(C)C)[C@@H](C(=O)O)N(C(=O)Cc2ccccc2C)[C@H]1c1ccccc1 [II-205]
– | – | – | – | < 100% | 1000 to 10000 nM | – | 1000 to 10000 nM | ++ (≥150 and <350) | – | COc1ccc(C(C)(C)C)cc1CN[C@H]1[C@H](C(C)(C)C)[C@@H](C(=O)O)N(C(=O)[C@]2(C)COc3cc4c(cc32)OC(F)(F)O4)[C@H]1c1cccnc1OC [III-230]
– | – | – | – | > 200% | 1000 to 10000 nM | – | < 1000 nM | +++ (≥350) | – | COc1ccc(C(C)(C)C)cc1CN[C@H]1[C@H](C(C)(C)C)[C@@H](C(=O)O)N(C(=O)C2CCCC(C(F)(F)F)C2)[C@H]1c1cccnc1N(C)C (stereo partly drawn) [III-206]
